Converted amounts (≈) assume the structure as drawn. Like-named read-outs stand apart in the source and are kept apart here.
Assays:
[1] = system: M. tuberculosis H37Rv; experiment: microbe, parasite or virus in culture; format: cell-based, Mycobacterium tuberculosis
[2] = Vero cell cytotoxicity, CellTiter-Glo, 2 days; format: cell-based; conditions: African green monkey, 2 days exposure
Protocol: Vero cells (CCL81) were cultured in high‐glucose Dulbecco's modified Eagle medium with GlutaMax (Invitrogen), 10% v/v fetal bovine serum, 50 units/mL penicillin, and 50 μg/mL streptomycin. Cells were exposed to compounds for 2 days and viability was determined using CellTiter‐Glo (Promega).

[3] = system: HepG2 human liver cells
[4] = system: HepG2 human liver cells; experiment: HepG2 cytotoxicity, CellTiter-Glo, 72 hr; conditions: HepG2, 72 h, read-out: HepG2 IC50
[5] = system: M. tuberculosis; experiment: Kill kinetics against replicating M. tuberculosis (CFU); format: cell-based, Mycobacterium tuberculosis; conditions: replicating conditions; for bactericidal activity (in words): 7H9-OADC-Tw medium, 1× to 10× MIC
[6] = Mycobacterium tuberculosis, H37RV, 120 h, […], mean ± SD (n in parentheses), read-out: MIC

Row | Structure (SMILES) | anti-tubercular activity (in words) [1] | MIC [1, 6] [µM] | IC50 at 2 days ([2]; Vero cells (CCL81)) [µM] | IC50 [4] [µM] | further results
1 | [O-][n+]1cccc2cccc(O)c21 [Compound 10] | loss of activity | > 20 | > 20 | < 88 | cytotoxicity against HepG2 cells (in words) [3]: significant reduction of cytotoxicity
2 | Oc1cccc2cccnc12 [Compound 1, 8‐hydroxyquinoline] |  |  |  | 7.6 ± 0.68 | MIC [1]: 3.6 ± 0.20 (2) μM; MIC ([1]; Mycobacterium tuberculosis, H37RV, 120 h): 3.6 µM (≈ 0.523 µg/mL); IC50 at 2 days ([2]; Vero cells): 1.4 µM
3 | OCc1ccccc1CN1CCN(Cc2ccc3cccc(O)c3n2)CC1 [Compound 26] | not tolerated | > 20 | 11 | 14 ± 0.5 | 
4 | Oc1ccc(CN2CCN(c3ccc(F)cc3)CC2)c2cccnc12 [Compound 9] | abrogated the anti‐tubercular activity | > 20 | 5.8 | 9.8 ± 2.2 | 
5 | CN(C)c1ccc2cccc(O)c2n1 [Compound 14] | loss of activity | > 20 | > 50 | > 100 | 
6 | Cc1cc(C)n(-c2ccc3cccc(O)c3n2)n1 [Compound 19] |  | > 20 | 19 | 12 ± 0.5 | 
7 | Oc1cccc2ccc(N3CCCCC3)nc12 [Compound 15] | loss of activity | > 20 | > 50 | > 100 | 
8 | O=[N+]([O-])c1ccc(O)c2ncccc12 [Compound 6] |  | 4.8 ± 3.3 (≈ 0.913 µg/mL) | 2.9 | 7.7 ± 1.8 | 
9 | CC(=O)Nc1ccc2cccc(O)c2n1 [Compound 17] | not tolerated | > 20 | 4.9 | 9 ± 1 | 
10 | Oc1ccc(COC2CCCCC2)c2cccnc12 [Compound 7] |  | 3.2 ± 0.85 (≈ 0.823 µg/mL) | 6.2 | 4.9 ± 1.9 | 
11 | Oc1cccc2ccc(/C=C/c3ccccc3Cl)nc12 [Compound 25] |  | 5.8 ± 2.2 (≈ 1.63 µg/mL) | 9 | 12 ± 1 | 
12 | Nc1ccc2cccc(O)c2n1 [Compound 12] | retained measurable anti‐tubercular activity | 4.6 ± 1.7 (≈ 0.737 µg/mL) |  | 12 ± 0.5 | IC50 at 2 days ([2]; Vero cells): 3.3 µM
13 | Oc1c(Cl)cc(Cl)c2cccnc12 [Compound 5] |  | 8.4 (≈ 1.8 µg/mL) | 1.3 | 7.6 ± 1.2 | MIC ([1]; […], mean ± SD (n in parentheses)): 8.4 ± 4.5 (6) μM
14 | CNc1ccc2cccc(O)c2n1 [Compound 13] | retained measurable anti‐tubercular activity | 6.4 ± 0.35 (≈ 1.11 µg/mL) | 8.2 | 22 ± 2.8 | 
15 | Oc1cccc2ccc(/C=C/c3ccc4c(c3)OCO4)nc12 [Compound 23] |  | 15 ± 5 (≈ 4.37 µg/mL) | 6 | 9.1 ± 3 | 
16 | Oc1ccc(CNc2cccc(Br)c2)c2cccnc12 [Compound 8] | abrogated the anti‐tubercular activity | > 20 | 7.5 | 12 ± 0.5 | 
17 | Cc1ccc(O)c2ncccc12 [Compound 2] |  | 3.1 ± 1.1 (≈ 0.493 µg/mL) | 1.4 | 6.5 ± 1.7 | 
18 | Oc1ccc(Cl)c2cccnc12 [Compound 4] |  | 3 ± 1 (≈ 0.539 µg/mL) | 2.4 | 7.6 ± 1.5 | bactericidal activity (in words) [5]: bactericidal; logs of bacteria killed ([5]; 12 μM (2.5× MIC) and higher, within 14 days): ≥ 3 logs
19 | COc1cccc(/C=C/c2ccc3cccc(O)c3n2)c1 [Compound 21] |  | 8.7 ± 0.2 (≈ 2.41 µg/mL) | 2.9 | 10 ± 1 | 
20 | Oc1ccc(Br)c2cccnc12 [Compound 3] |  | 2.9 ± 0.4 (≈ 0.65 µg/mL) | 1.8 | 6.9 ± 0.59 | 
21 | COc1ccccc1/C=C/c1ccc2cccc(O)c2n1 [Compound 22] |  | 13 ± 9.1 (≈ 3.61 µg/mL) | 6.2 | 12 ± 2 | 
22 | Oc1cccc2ccc(Nc3ccccc3)nc12 [Compound 16] | loss of activity | > 20 | 0.94 | 3.8 ± 0.45 | 
23 | Cc1ccc2cccc(O)c2n1 [Compound 11] | not tolerated | > 20 |  | 28 ± 9 | IC50 at 2 days ([2]; Vero cells): 12 µM
24 | Oc1cccc2ccc(/C=C/c3cccc(F)c3)nc12 [Compound 24] |  | 13 ± 6.3 (≈ 3.45 µg/mL) | 7.2 | 8 ± 0.6 | bactericidal activity (in words) [5]: bactericidal; log kill (sterilized the culture) ([5]; 27 μM (10× MIC), within 14 days): > 4 log; logs of bacteria killed ([5]; concentrations above 14 μM (5× MIC)): ≥ 2 logs

Reference: PMC6767403, “8‐Hydroxyquinolines are bactericidal against Mycobacterium tuberculosis” (Drug Development Research, 2019)
